Reference: patent US6699681B2, “Endothelin converting enzymes and the amyloid β peptide” (Mayo Foundation for Medical Education and Research, priority 2000, dated 2004)
Entries after “also recorded” stand apart in the source; their conditions may differ.

Test system: H4 cells
Assay: Removal of synthetic Aβ spiked into culture medium of H4 cells
Format: cell-based, human
Conditions: incubated 6 or 24 hrs, presence vs absence of phosphoramidon
Protocol: Human and guinea pig Aβ40 or Aβ42 was measured in plasma by sandwich ELISA as previously described (Suzuki et al., 1994, Science, 264:1336-1340) using the BAN-50/BA-27 or BAN-50/BC-05 antibody systems, respectively (Takeda; Japan). Hamster Aβ40- or Aβ42-derived from CHO cells was measured using the BNT-77/BA-27 or BNT-77/BC-05 antibody systems, respectively. Aβ concentration in samples was determined by comparison to synthetic Aβ40 or Aβ42 standards (Bachem, Switzerland). Data was obtained from triplicate wells. […] Plates were read at 450 nm in a SpectraMax Plus spectrophotometer (Molecular Devices; Sunnyvale, Calif.) and analyzed by SOFTmax® PRO software. Aβ40 or Aβ42 were quantitated by comparison with the values obtained for each synthetic Aβ standard from the same plate. To exclude the possibility that the phosphoramidon-induced effect was due to inhibition of extracellular degradation and/or internalization of Aβ by H4 cells, synthetic Aβ was spiked into the culture medium, incubated for 6 or 24 hrs, and the amount of synthetic Aβ remaining in the medium was determined by sandwich ELISA. […] Intracellular Aβ has not been convincingly detected in H4 cells, presumably due to rapid secretion of the peptide.

For `CC(C)C[C@H](NP(=O)(O)O[C@@H]1O[C@@H](C)[C@H](O)[C@@H](O)[C@H]1O)C(=O)N[C@@H](Cc1c[nH]c2ccccc12)C(=O)O` [phosphoramidon], the “removal of synthetic Aβ spiked into the culture medium” value was “removed equally; also recorded: not affected”.
